Key:
EGFR (human) [1] = target: EGFR (human) (UniProt P00533); conditions: pc-3
EGFR (human) [2] = target: EGFR (human) (UniProt P00533); conditions: u251
EGFR (human) [3] = target: EGFR (human) (UniProt P00533); conditions: hl60tb
EGFR (human) [4] = target: EGFR (human) (UniProt P00533); conditions: mg-mid
EGFR (human) [5] = target: EGFR (human) (UniProt P00533); conditions: mda-mb-231/atcc
EGFR (human) [6] = target: EGFR (human) (UniProt P00533); conditions: sf-295
EGFR (human) [7] = target: EGFR (human) (UniProt P00533); conditions: a431
EGFR (human) [8] = target: EGFR (human) (UniProt P00533); conditions: tk-10
EGFR (human) [9] = target: EGFR (human) (UniProt P00533); conditions: achn
EGFR (human) [10] = target: EGFR (human) (UniProt P00533); conditions: 786-0
EGFR (human) [11] = target: EGFR (human) (UniProt P00533); conditions: h7 578t
EGFR (human) [12] = target: EGFR (human) (UniProt P00533); conditions: a549
EGFR (human) [13] = target: EGFR (human) (UniProt P00533); conditions: caki-1
EGFR (human) [14] = target: EGFR (human) (UniProt P00533); conditions: rxf-393
EGFR (human) [15] = target: EGFR (human) (UniProt P00533); conditions: hop-92
EGFR (human) [16] = target: EGFR (human) (UniProt P00533); conditions: h460

Chain of EGFR (human) (P00533 whole entry, looked up): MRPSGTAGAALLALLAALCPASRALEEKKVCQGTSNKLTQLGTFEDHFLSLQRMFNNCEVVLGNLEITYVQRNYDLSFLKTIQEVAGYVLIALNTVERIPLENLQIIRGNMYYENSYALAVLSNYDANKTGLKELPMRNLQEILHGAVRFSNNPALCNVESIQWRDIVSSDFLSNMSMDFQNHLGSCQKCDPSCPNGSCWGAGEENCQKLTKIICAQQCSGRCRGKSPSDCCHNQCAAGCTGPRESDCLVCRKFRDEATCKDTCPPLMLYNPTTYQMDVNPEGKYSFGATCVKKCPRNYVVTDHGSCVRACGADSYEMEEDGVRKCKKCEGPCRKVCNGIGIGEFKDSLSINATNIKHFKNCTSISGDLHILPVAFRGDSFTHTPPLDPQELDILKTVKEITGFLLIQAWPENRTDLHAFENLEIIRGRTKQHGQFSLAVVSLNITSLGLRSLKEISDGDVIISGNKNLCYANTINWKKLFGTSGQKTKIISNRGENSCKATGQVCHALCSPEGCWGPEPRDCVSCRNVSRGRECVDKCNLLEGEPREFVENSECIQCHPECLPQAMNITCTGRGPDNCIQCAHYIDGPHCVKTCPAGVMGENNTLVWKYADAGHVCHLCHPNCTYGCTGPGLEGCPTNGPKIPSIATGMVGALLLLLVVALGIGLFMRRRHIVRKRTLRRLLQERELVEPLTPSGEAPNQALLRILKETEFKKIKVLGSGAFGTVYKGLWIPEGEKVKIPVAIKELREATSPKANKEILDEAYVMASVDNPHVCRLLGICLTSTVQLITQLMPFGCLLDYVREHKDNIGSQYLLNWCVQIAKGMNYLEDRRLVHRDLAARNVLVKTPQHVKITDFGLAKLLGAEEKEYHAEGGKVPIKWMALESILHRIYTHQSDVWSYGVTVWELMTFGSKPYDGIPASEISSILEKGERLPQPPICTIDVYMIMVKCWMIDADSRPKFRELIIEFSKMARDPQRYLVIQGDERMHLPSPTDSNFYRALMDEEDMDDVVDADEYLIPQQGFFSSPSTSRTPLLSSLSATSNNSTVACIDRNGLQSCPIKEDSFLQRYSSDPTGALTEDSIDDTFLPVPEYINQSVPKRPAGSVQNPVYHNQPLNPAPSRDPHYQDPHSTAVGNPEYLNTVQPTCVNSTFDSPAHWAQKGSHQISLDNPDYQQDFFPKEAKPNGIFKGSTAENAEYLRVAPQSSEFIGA

Row | SMILES | GI50 (EGFR (human) [1]) [µM] | GI50 (EGFR (human) [2]) [µM] | GI50 (EGFR (human) [3]) [µM] | GI50 (EGFR (human) [4]) [µM] | GI50 (EGFR (human) [5]) [µM] | GI50 (EGFR (human) [6]) [µM] | IC50 (EGFR (human) [7]) [µM] | GI50 (EGFR (human) [8]) [µM] | GI50 (EGFR (human) [9]) [µM] | GI50 (EGFR (human) [10]) [µM] | GI50 (EGFR (human) [11]) [µM] | GI50 (EGFR (human) [12]) [µM] | GI50 (EGFR (human) [13]) [µM] | GI50 (EGFR (human) [14]) [µM] | GI50 (EGFR (human) [15]) [µM] | GI50 (EGFR (human) [16]) [µM]
1 | CCOC(=O)/C(C#N)=C/c1ccc([N+](=O)[O-])s1 | 2.95 | 13.5 | 0.28 | 3.47 | 1.86 | 2.09 | 4.6 | 3.47 | 1.9 | 10.7 | 3.47 | 15.5 | 2.14 | 1.7 | 11.5 | 6.92
2 | N#CC(C#N)=Cc1csc([N+](=O)[O-])c1 | 38 | – | 42.6 | 30.2 | 26.3 | – | 28.4 | 45.7 | 19.5 | 33.9 | 28.2 | > 100 | 24.5 | 17.4 | 30.9 | 54.9
3 | N#CC(C#N)=C(N)/C(C#N)=C/c1ccc([N+](=O)[O-])s1 | 19.9 | 18.6 | – | 13.2 | 17 | 17.4 | 6.07 | 18.2 | 19.9 | 19.9 | 18.6 | – | 18.2 | 9.33 | – | 23.4

From the Kinase Knowledgebase extract (Sharma et al. 2016)
